Measurements taken from patent US10258617B2, “Dosing regimens for fast onset of antidepressant effect” (H. Lundbeck A/S, priority 2016, dated 2019).
Like-named read-outs stand apart in the source and are kept apart here.

Tests used:
[1] = molecular target: T1, 5-HT1B receptor (Macaca mulatta, UniProt F6SFA9); test: Example 1 PET monkey study: change in [11C]AZ10419369-5-HT1B receptor binding potential (BPND); assay type: in vivo, rhesus monkeys; settings: rhesus monkey, iv, Citalopram 0.3 mg/kg IV, mean±standard error, n=3, read-out: ΔBPND (% of baseline)
T1 construct: assess changes in the endogenous serotonin concentration in living rhesus monkeys; from tissue; host or cells: brain of living rhesus monkeys (PET)
From the text: Positron Emission Tomography (PET) was used to assess changes in the endogenous serotonin concentration in living rhesus monkeys. The objective of the present study was two-fold. […] The chemical name for [^11C]MADAM is [^11C] N,N-dimethyl-2-(2-amino-4-methylphenylthio)benzylamine.
FIG. 1 illustrates the study design used for assessment of serotonin releasing capacities. A similar study design was applied for assessment of SERT occupancy.

[2] = system: patients with recurrent major depressive disorder; test: Example 3 clinical trial: MADRS and CGI-I efficacy; assay type: in vivo, human; settings: for Change in 5-item MADRS score, Difference / Change in MADRS total score, Difference: VOR IV + VOR oral versus PBO IV + VOR oral;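 for Change in 5-item MADRS score, Difference: apparent sadness Reported sadness Inner tension Pessimistic thoughts Suicidal thoughts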;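 for Change in 5-item MADRS score, Mean: apparent sadness Reported sadness Inner tension Pessimistic thoughts Suicidal thoughts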
Protocol: In particular, a total of 55 patients (27 and 28 in each treatment group) were recruited to an interventional, prospective, multi-national, multi-site, randomised, double-blind, parallel-group, fixed-dose study.
The study consisted of a Screening Period—2 to 14-day period from screening to randomisation, a Treatment Period—15-day double-blind treatment period with one initial IV administration of 17 mg vortioxetine or saline and daily oral treatment with vortioxetine 10 mg and a Safety Follow-up Period—4-week period after end of treatment or after withdrawal from the study.
At the Baseline Visit, patients were equally randomised (1:1) to either of the following two dose regimens: vortioxetine 17 mg single dose (IV) and vortioxetine 10 mg/day (tablet) or placebo single dose (IV) and vortioxetine 10 mg/day (tablet).
(§1) Patients randomised to the vortioxetine IV dose regimen, received a single double-blind IV dose of 17 mg vortioxetine, infused over 2 hours, on Day 0 (baseline). Patients randomised to the vortioxetine oral dose regimen received a single double-blind IV dose of placebo (saline), infused over 2 hours, on Day 0. From Day 0 to Day 14, all patients in both treatment groups also received open labelled 10 mg/day vortioxetine by oral administration (tablets).
Following the IV infusion, patients stayed hospitalised for approximately 24 hours for close observation. After the hospitalisation period, patients continued the study on an outpatient basis.
Efficacy and safety data were collected at Days 0, 1, 3, 7, and 14, including MADRS and clinical global impression […].
The full MADRS scale may not be a suitable tool for gauging the early onset of anti-depressant effect of a drug because some of the ten items addressed in the MADRS test may require longer assessment time to validly assess a given symptom. For example, the MADRS item “Concentration Difficulties” requires that the patient has been exposed to a situation during the treatment where a change in the ability to concentrate could be identified in order for that item to truly reflect a treatment effect.

[3] = Example 3 clinical trial: vortioxetine plasma levels and simulated AUC0-24; assay type: in vivo; settings: human; for concentration at 2 h: Day 0, 2 hours; for concentration at 8 h: Day 0, 8 hours; for concentration at 24 h: Day 0, 24 hours; for concentration at 14 day: Day 14; for AUC(0-t): popPK simulation based on observed data
Protocol: as §1
The popPK model from example 2 was used to simulate vortioxetine plasma levels based on the observed data from Table 5. […] That is, the steady-state plasma level of vortioxetine achieved from the combined IV and oral vortioxetine administration the within 24 hours from the first dosing is essentially the same as the steady-state vortioxetine plasma level achieved at day 14 following the administration of once-daily oral vortioxetine alone in that period.

[4] = PBO IV + VOR oral (10 mg/day), Day 1, N 28
[5] = PBO IV + VOR oral (10 mg/day), Day 3, N 28
[6] = PBO IV + VOR oral (10 mg/day), Day 7, N 28
[7] = VOR IV (17 mg day 0) + VOR oral (10 mg/day), Day 1, N 27
[8] = VOR IV (17 mg day 0) + VOR oral (10 mg/day), Day 3, N 27
[9] = VOR IV (17 mg day 0) + VOR oral (10 mg/day), Day 7, N 27
[10] = other: intravenous infusion plus oral tablets, VOR IV + VOR oral

T1 sequence (F6SFA9 1-390): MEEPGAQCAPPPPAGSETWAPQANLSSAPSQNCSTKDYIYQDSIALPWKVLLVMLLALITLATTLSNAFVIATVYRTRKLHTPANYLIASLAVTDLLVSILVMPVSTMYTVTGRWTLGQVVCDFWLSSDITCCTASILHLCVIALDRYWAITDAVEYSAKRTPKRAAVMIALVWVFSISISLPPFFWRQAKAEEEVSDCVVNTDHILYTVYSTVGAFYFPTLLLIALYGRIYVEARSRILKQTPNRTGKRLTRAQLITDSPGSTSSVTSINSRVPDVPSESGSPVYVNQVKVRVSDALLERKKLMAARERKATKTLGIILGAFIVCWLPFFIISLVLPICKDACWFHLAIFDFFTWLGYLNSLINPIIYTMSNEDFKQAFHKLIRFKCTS

CN(C)CCCC1(c2ccc(F)cc2)OCc2cc(C#N)ccc21 (centres unmarked) [Citalopram]
change in vivo at 0.3 mg/kg ([1]; Amygdala): 4.6 ± 11.6%
change in vivo at 0.3 mg/kg ([1]; Caudate nucleus): 7.1 ± 7.5%
change in vivo at 0.3 mg/kg ([1]; Dorsal raphe nucleus): -21.2 ± 5.7%
change in vivo at 0.3 mg/kg ([1]; Frontal gyrus): 12.4 ± 9.3%
change in vivo at 0.3 mg/kg ([1]; Globus pallidus): -1.6 ± 9.6%
change in vivo at 0.3 mg/kg ([1]; Hippocampus): 5.4 ± 12.5%
change in vivo at 0.3 mg/kg ([1]; Midbrain): 2.7 ± 5.3%
change in vivo at 0.3 mg/kg ([1]; Occipital gyrup): 15.7 ± 11.1%
change in vivo at 0.3 mg/kg ([1]; Putamen): 7.3 ± 12%
change in vivo at 0.3 mg/kg ([1]; Thalamus): 0.3 ± 5.6%
change in vivo at 0.3 mg/kg ([1]; Ventral striatum): 3.1 ± 10.8%

Cc1ccc(Sc2ccccc2N2CCNCC2)c(C)c1 [PBO IV + VOR oral]
Change in 5-item MADRS score, Mean [2, 4]: −3.92
Change in MADRS total score, Mean [2, 4]: −5.5
Change in 5-item MADRS score, Mean [2, 5]: −6.00
Change in MADRS total score, Mean [2, 5]: −10.3
Change in 5-item MADRS score, Mean [2, 6]: −7.03
Change in MADRS total score, Mean [2, 6]: −13.4
Change in 5-item MADRS score, Mean ([2]; PBO IV + VOR oral (10 mg/day), Day 14, N 28): -9.21
% responders (CGI-I ≤ 2) ([2]; PBO IV + VOR oral, Day 1): 7.1%
% responders (≥50% reduction on MADRS Scale) ([2]; PBO IV + VOR oral, Day 1): 0%
% responders (CGI-I ≤ 2) ([2]; PBO IV + VOR oral, Day 3): 39.3%
% responders (≥50% reduction on MADRS Scale) ([2]; PBO IV + VOR oral, Day 3): 14.3%
% responders (CGI-I ≤ 2) ([2]; PBO IV + VOR oral, Day 7): 42.9%
% responders (≥50% reduction on MADRS Scale) ([2]; PBO IV + VOR oral, Day 7): 28.6%
% responders (CGI-I ≤ 2) ([2]; PBO IV + VOR oral, Day 14): 67.9%
% responders (≥50% reduction on MADRS Scale) ([2]; PBO IV + VOR oral, Day 14): 50.0%
concentration at 2 h ([3]; 10 mg/day, PBO IV + VOR oral): 0.56 ± 1.18 ng/mL
concentration at 8 h ([3]; 10 mg/day, PBO IV + VOR oral): 2.8 ± 1.8 ng/mL
concentration at 24 h ([3]; 10 mg/day, PBO IV + VOR oral): 2.6 ± 1.3 ng/mL
concentration at 14 day ([3]; 10 mg/day, PBO IV + VOR oral): 9.9 ± 5.3 ng/mL
AUC(0-t) ([3]; oral, 10 mg/day, day 0, PBO IV+VOR oral treated patients): 47 ± 20 ng·h/mL
AUC(0-t) ([3]; oral, 10 mg/day, day 14, PBO IV+VOR oral treated patients): 230 ± 85 ng·h/mL

Cc1ccc(Sc2ccccc2N2CCNCC2)c(C)c1 [VOR IV + VOR oral]
Change in 5-item MADRS score, Mean [2, 7]: −5.05
Change in MADRS total score, Mean [2, 7]: −6.9
Change in 5-item MADRS score, Mean [2, 8]: −6.96
Change in MADRS total score, Mean [2, 8]: −12.1
Change in 5-item MADRS score, Mean [2, 9]: −8.30
Change in MADRS total score, Mean [2, 9]: −13.7
Change in 5-item MADRS score, Mean ([2]; VOR IV (17 mg day 0) + VOR oral (10 mg/day), Day 14, N 27): -9.37
Change in 5-item MADRS score, Difference ([2]; Day 1): −1.13
Change in MADRS total score, Difference ([2]; Day 1): −1.4
Change in 5-item MADRS score, Difference ([2]; Day 3): −0.96
Change in MADRS total score, Difference ([2]; Day 3): −1.7
Change in 5-item MADRS score, Difference ([2]; Day 7): −1.27
Change in MADRS total score, Difference ([2]; Day 7): −0.3
Change in 5-item MADRS score, Difference ([2]; Day 14): −0.16
% responders (CGI-I ≤ 2) ([2]; VOR IV + VOR oral, Day 1): 18.5%
% responders (≥50% reduction on MADRS Scale) ([2]; VOR IV + VOR oral, Day 1): 3.7%
% responders (CGI-I ≤ 2) ([2]; VOR IV + VOR oral, Day 3): 50.0%
% responders (≥50% reduction on MADRS Scale) ([2]; VOR IV + VOR oral, Day 3): 29.6%
% responders (CGI-I ≤ 2) ([2]; VOR IV + VOR oral, Day 7): 53.8%
% responders (≥50% reduction on MADRS Scale) ([2]; VOR IV + VOR oral, Day 7): 40.7%
% responders (CGI-I ≤ 2) ([2]; VOR IV + VOR oral, Day 14): 73.1%
% responders (≥50% reduction on MADRS Scale) ([2]; VOR IV + VOR oral, Day 14): 48.1%
concentration at 2 h [3, 10]: 11.1 ± 9.3 ng/mL
concentration at 8 h [3, 10]: 11 ± 2.9 ng/mL
concentration at 24 h [3, 10]: 8.6 ± 2.6 ng/mL
concentration at 14 day [3, 10]: 10.8 ± 7 ng/mL
AUC(0-t) ([3]; other: intravenous infusion plus oral tablets, day 0, VOR IV+VOR oral treated patients): 251 ± 46 ng·h/mL
